From patent US9226882B2, “Eco-friendly non-aqueous antimicrobial composition comprising tropolone with 1,3-propanediol and/or sorbitan caprylate” (ISP INVESTMENTS INC., priority 2012, dated 2016) come the findings set out here.

Assay [1] deals with E. Coli (DSM 1576). Kind of assay: MIC study on agar, bacterial strain. Format: cell-based, Escherichia coli. How it is done: (§1) Equal amounts of mixtures were poured into four Petri dishes. After cooling, the Petri dishes were inoculated with the respective standard strains. During the experiment, the Petri dishes were kept for 2 to 3 weeks at room temperature of about 20 to 25° C. in the dark. The following two different types of culture media were employed for the present studies: • i. […] The preferred bacterial strains for the present application are Pseudomonas aeruginosa (DSM 1128), Staphylococcus aureus (DSM 799), E. Coli (DSM 1576), Proteus mirabilis (DSM 788) and Burkholderia cepacia (DSM 7288), and the preferred fungal strains are Aspergillus brasiliensis (DSM 1988), Penicillium expansum (DSM 1282), Trichoderma viride (DSM 63064), and the yeast is Candida albicans, (DSM 1386). After 2nd and 3rd weeks macroscopic evaluations were performed, the ratings are as follows: The formulation under examination is considered to be efficient if the following conditions are duly fulfilled i.e. (i) after 2-3 weeks no growth of the tested culture is visible; (ii) with rising concentration of the tested formulation, the germ growth should macroscopically be reduced until it is not visible any more.

Assay [2] deals with Proteus mirabilis (DSM 788). As to the kind of experiment: MIC study on agar, bacterial strain. Format: cell-based. The settings on record: DSM788, Caso-Agar pH 7.3, 2 to 3 weeks at 20 to 25° C. in the dark. How it is done: as §1
Assay [3] deals with Pseudomonas aeruginosa (DSM 1128). Kind of assay: MIC study on agar, bacterial strain. The class given is cell-based. The note with it: DSM1128, Caso-Agar pH 7.3, 2 to 3 weeks at 20 to 25° C. in the dark. How it is done:
as §1

The test system of assay [4] is Burkholderia cepacia (DSM 7288). As to the kind of experiment: MIC study on agar, bacterial strain. Format: cell-based. On the procedure: as §1
Assay [5] concerns Staphylococcus aureus (DSM 799). As to the kind of experiment: MIC study on agar, bacterial strain. Format: cell-based. The settings on record: DSM799, Caso-Agar pH 7.3, 2 to 3 weeks at 20 to 25° C. in the dark. On the procedure:
as §1

In assay [6] the test system is Penicillium expansum (DSM 1282). As to the kind of experiment: MIC study on agar, fungal strain. The note with it: DSM1282, Penicillim expansum, Malt extract-Agar (3%) pH 5.6, 2 to 3 weeks at 20 to 25° C. in the dark. Format: cell-based. On the procedure: as §1
Assay [7] concerns Trichoderma viride (DSM 63064). As to the kind of experiment: MIC study on agar, fungal strain. Format: cell-based. On the procedure:
as §1

Assay [8] has as its system Aspergillus brasiliensis (DSM 1988). Kind of assay: MIC study on agar, fungal strain. Format: cell-based. How it is done:
as §1

Assay [9] concerns Candida albicans, (DSM 1386). Kind of assay: MIC study on agar, yeast strain. Format: cell-based. The note with it: DSM1386, Candida albican, Malt extract-Agar (3%) pH 5.6, 2 to 3 weeks at 20 to 25° C. in the dark. On the procedure:
as §1

≈ marks a conversion by molar mass, not a printed value. A value given as a limit tells only on which side of the number the result lay.

As a reminder, the MIC is the lowest concentration found to suppress growth. A high value points to a less susceptible organism. Regarding `O=c1cccccc1O` [Tropolone, 2-Hydroxy-2,4,6-cycloheptatrien-1-one], the MIC is 250 µg/mL (≈ 2050 µM) in assay [1] (DSM1576, Escherichia coli, Caso-Agar pH 7.3, 2 to 3 weeks at 20 to 25° C. in the dark); 250 µg/mL (≈ 2050 µM) in assay [2]; 500 µg/mL (≈ 4090 µM) in [3]; 250 µg/mL (≈ 2050 µM) in assay [4] (DSM7288, Burkholderia cepacia, Caso-Agar pH 7.3, 2 to 3 weeks at 20 to 25° C. in the dark); 250 µg/mL (≈ 2050 µM) in assay [5]; 100 µg/mL (≈ 819 µM) in assay [6]. In addition, the MIC in assay [7] (DSM63064, Trichoderma viride, Malt extract-Agar (3%) pH 5.6, 2 to 3 weeks at 20 to 25° C. in the dark) was 250 µg/mL (≈ 2050 µM); in assay [8] (DSM1988, Aspergillus brasiliensis, Malt extract-Agar (3%) pH 5.6, 2 to 3 weeks at 20 to 25° C. in the dark) it was 50 µg/mL (≈ 409 µM); in assay [9] it was 20 µg/mL (≈ 164 µM). In addition, the “reduction of MIC level of tropolone” value in assay [1] (in presence of 1,3-propanediol (Zemea), against Escherichia coli) is recorded as > 50%; in [4] (by sorbitan caprylate (Velsan SC), against Burkholderia cepacia), > 90%; in assay [7] (by sorbitan caprylate (Velsan SC), against Trichoderma viride) it was > 50%; in assay [8] (by sorbitan caprylate (Velsan SC), against Aspergillus brasiliensis), > 50%.
